Results on 8 molecules are retold here after patent US5494925A, “2-heterocyclyloxymethyl and 2-heterocyclylthiomethyl-1,2,5-thiadiazolidin-3-one 1,1-dioxides and compositions and method of use thereof” (Sterling Winthrop Inc., priority 1994, dated 1996).

The target in the experiment is T1, human leukocyte elastase (Homo sapiens, UniProt P08246).
T1 sequence (P08246 30-267): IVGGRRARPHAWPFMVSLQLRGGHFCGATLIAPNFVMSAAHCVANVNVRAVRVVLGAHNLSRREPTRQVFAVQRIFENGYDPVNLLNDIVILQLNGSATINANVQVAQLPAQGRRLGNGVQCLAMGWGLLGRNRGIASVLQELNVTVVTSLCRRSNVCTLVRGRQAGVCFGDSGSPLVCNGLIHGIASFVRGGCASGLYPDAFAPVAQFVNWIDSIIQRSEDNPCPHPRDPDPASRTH
Description: human leukocyte elastase inhibition, progress curves with MeOSuc-Ala-Ala-Pro-Val-pNA. The class given is biochemical. Conditions: HLE; substrate MeOSuc-Ala-Ala-Pro-Val-pNA; pH 7.8, 25° C.; 410 nM absorbance; read-out: inhibition constant Ki. How it is done: The test compound (inhibitor) is dissolved in DMSO in a vial to produce an inhibitor stock solution which has a concentration in the range of 200-1000 μM. The inhibitor stock solution is diluted (1:4, 1:16 and 1:64) into assay vials (vials 1, 2 and 3 respectively) containing 2.4 mL of buffer solution (50 mM N-[2-hydroxyethyl]piperazine-N'-[2-ethanesulfonic acid]/NaOH, 500 mM NaCl, pH 7.8 at 25° C.) and DMSO is added so that the total volume in each vial is 3.2 mL. 70 μL, 50 μL, 35 μL and 25 μL of inhibitor from assay vial 1 is placed into the first four wells of a 96-well microtiter plate and each well is made up to 90 μL total volume with the addition of a 25% DMSO/buffer solution. The inhibitor from assay vials 2 and 3 is processed in a similar manner and placed in wells 5-12 respectively to afford a total of 12 different inhibitor concentrations. Four wells (wells 13-16) containing 90 μL of the 25% DMSO/buffer solution but no inhibitor are also run simultaneously with the inhibited wells as a control. 150 μL of substrate solution (prepared by the addition of 500 μL of the human leukocyte elastase (HLE) substrate MeOSuc-Ala-Ala-Pro-Val-pNA (18.7 mM in DMSO) to 19.5 mL of buffer solution) is then added simultaneously into each of the 16 wells and the solution in each well was thoroughly mixed.
The 96-well microtiter plate is placed into a Microplate Reader #89815A spectrophotometer and 110 μL of the enzyme solution (prepared as follows: a mixture of 20 mL of buffer solution and 20 mg of bovine serum albumen is gently vortexed in a scintillation vial and 5 μL HLE stock solution (1 mg/mL dissolved in deionized water) is added) is added simultaneously to each of the 16 wells. Each of the solutions in the wells is thoroughly mixed and then the time-dependent absorbance data is collected at an absorbance of 410 nm until the assay is complete. It should be noted that although this assay method can be done manually, it is preferred to perform the assay robotically using a Hewlett Packard MicroAssay System Robot.
A plot of the absorbance versus time data thus obtained affords progress curves the final slope of which is equal to the final steady-state velocities (VF). Using the program ENZFITTER (Elsevier software), the progress curves for the four control assays ([I]=0) are fit by linear regression to yield the enzyme reaction velocity values in the absences of inhibitor (Vo) which are averaged to produce a single fixed value. The inhibition constant Ki (nM) is then obtained from a plot of [formula] which affords a linear plot wherein: [formula] and [S] is the concentration of the substrate and Km is the Michaelis constant.
Table V summarizes the results obtained from the testing of representative compounds of the invention for human leukocyte elastase inhibitory activity.
In the case of `CCCC1C(=O)N(CSc2nnnn2-c2ccccc2)S(=O)(=O)N1C` (centres unmarked) [3 (h), 2-(1-phenyl-1H-tetrazol-5-yl-thiomethyl)-4-propyl-5-methyl-1,2,5-thiadiazolidin-3-one 1,1-dioxide], the Ki was found to be 3.6 nM. As to `CC(C)C1NS(=O)(=O)N(CSc2nnnn2-c2ccccc2)C1=O` (racemic) [2 (f), 2-(1-phenyl-1H-tetrazol-5-yl-thiomethyl)-4-isopropyl-1,2,5-thizdizolidin-3-one 1,1-dioxide], the Ki is 3000 nM. As for `CC(C)C1C(=O)N(CSc2nnnn2-c2ccccc2)S(=O)(=O)N1C` (centres unmarked) [4 (f), 2-(1-phenyl-1H-tetrazol-5-yl-thiomethyl)-4-isopropyl-5-methyl-1,2,5-thiadiazolidin-3-one 1,1-dioxide], the inhibitory constant (Ki) is 200 nM. For `O=C1C2CCCCN2S(=O)(=O)N1CSc1nnnn1-c1ccccc1` (centres unmarked) [18 (f), 2-(1-phenyl-1H-tetrazol-5-yl-thiomethyl)-1,2,5-thiadiazolo [2,3-a]3,3a,4,5,6,7-hexahydropyridine-3-one 1,1-dioxide], the Ki was 85 nM.

In the case of `O=C1C2CCCN2S(=O)(=O)N1CSc1nnnn1-c1ccccc1` (centres unmarked) [19 (f), 2-(1-phenyl-1H-tetrazol-5-yl-thiomethyl)tetrahydropyrrolo[1,2-b]-1,2,5-thiadiazol-3 (2H)-one 1,1-dioxide], the inhibition constant Ki was 540 nM. In the case of `CCCC1C(=O)N(CSc2nnnn2-c2ccccc2)S(=O)(=O)N1CC` (centres unmarked) [5 (i), 2-(1-phenyl-1H-tetrazol-5-yl-thiomethyl)-4-propyl-5-ethyl-1,2,5-thiadiazolidin-3-one 1,1-dioxide] it was 11 nM. `CCCC1NS(=O)(=O)N(CSc2nnnn2-c2ccccc2)C1=O` (centres unmarked) [1 (f), 2-(1-phenyl-1H-tetrazol-5-yl-thiomethyl)-4-propyl-1,2,5-thiadiazolidin-3-one 1,1-dioxide]: the Ki turned out to be 180 nM. On to `CC(C)CCC1C(=O)N(COc2cc(C(F)(F)F)nn2-c2ccccc2)S(=O)(=O)N1C` (centres unmarked) [6 (j), 2-(1-phenyl-3-trifluoromethyl-pyrazol-5-yloxymethyl)-4-(3-methylbutyl)-5-methyl-1,2,5-thiadiazolidin-3-one 1,1-dioxide], for which the Ki turned out to be 2.4 nM.

Broadly, the Ki is the dissociation constant of the complex between target and ligand, obtained from inhibition or displacement.
